# Source: patent US20230145643A1, “AGENTS FOR USE IN THE THERAPEUTIC OR PROPHYLACTIC TREATMENT OF RETINAL PIGMENT EPITHELIUM ASSOCIATED DISEASES” (priority 2020, published 2023)
# Several values for one entry are separate records, joined by “and”; a condition that tells them apart may be missing. Equal entries are not always repeated. Where two headings read alike, the source gives them in different places.
# Assays:
# guinea pig eyes = assay: Toxicity test of intravitreally administered amphiregulin (guinea pigs); format: in vivo
# Description: Methods and Material: Two to three-week old guinea pigs were divided into four groups:
# animals that received an intravitreal administration of amphiregulin (dose: 10 ng in 5 μl) into one eye and an intravitreal administration of vehicle into the contralateral eye (n=4),
# animals that received an intravitreal administration of amphiregulin (dose: 10 ng in 5 μl) into both eyes (n=4),
# an animal that received intravitreal administration of amphiregulin (dose: 10 ng in 5 μl) into one eye with the contralateral eye left untreated (n=1), and
# animals with both eyes left intact (n=2).
# All animals were treated in accordance with the ARVO (association for Research in Vision and Ophthalmology) Statement for the Use of Animals in Ophthalmic and Vision Research and the EC Directive 86/609/EEC for animal experiments. The animals were housed at a constant temperature (22±1° C.) and in a light-controlled environment (lights on from 7 am to 7 pm) with ad libitum access to food and water.
# All animals with injections received two intravitreal injections at an interval of ten days.
# At each time point, the eyes were inspected for signs of toxicity. Ten days after the second injection, the animals were sacrificed by an overdose of anesthetics. Ocular biometry was performed at baseline, prior to each injection, and prior to the sacrifice of animals. The sonographic ocular biometry was performed using Aviso, The Ultrasound Platform (Quantel Medical, France) under general anesthesia, on the follow-up days 15, 25, 35 and prior the sacrifice on day 45.
# After the sacrifice, the eyes of the animals were removed, post-fixed overnight in 4% paraformaldehyde, and embedded in optimal cutting temperature compound, cryosectioned and immunostained against glial activation marker (glial fibrillary acidic protein), microglial cell marker (lba-1), native guinea pig amphiregulin, and injected amphiregulin; or they were embedded in paraffin, sectioned and stained with hematoxylin and eosin for general histologic examination and histomorphometric retinal thickness measurements. In addition, the tissue was stained for apoptotic cell death detection applying the TUNEL method.
# bovine RPE cell [1] = conditions: bovine RPE cells after incubation with growth factor; cited from earlier work
# [2] = system: eyes of AMD patients (geographic atrophy); assay: Series of seven AMD patients treated with intravitreal EGF; format: in vivo, human
# From the text: A series of seven patients were consecutively treated. […] The patients underwent weekly to two-weekly ophthalmological follow-up examinations. Three patients (patients #1, 2, and 3) received a repeated intravitreal injection after an interval of three to four weeks.
# bovine RPE cell [3] = conditions: bovine RPE cells; cited from earlier work
# EGFR = EGFR signaling via the PI3K/Akt pathway in RPE culture; format: cell-based; conditions: addition of EGF
# ARPE-19 cell line [4] = assay: RPE cell proliferation (scanning spectrophotometer); format: cell-based, human; conditions: dose-dependent; EGF 0.1, 10, 100 μg/L; EGF antibody 0.01, 1.0, 10 mg/L; PBS control
# Description: (§1) Materials and Methods: The human ARPE-19 cell line was cultured in a standardized culture medium and incubated at 37° C. under 5% CO2. […] We examined the RPE cell proliferation using of a scanning spectrophotometer. In a second step, we examined the cell migration by a scratch assay.
# RPE D407 cells = conditions: through both PI3K and ERK/MAPK pathways; cited from earlier work
# ARPE-19 cell line [5] = assay: RPE cell migration (scratch assay); format: cell-based, human; conditions: dose-dependent; EGF 0.1, 10, 100 μg/L; EGF antibody 0.01, 1.0, 10 mg/L; PBS control
# Description: as §1
# [6] = system: eye of patient with geographic atrophy; format: in vivo, human; conditions: for foveolar zone thickness upon optical coherence tomography: 69 μm at baseline
# From the text: Optical coherence tomography images of the fundus signs were unchanged. • On the 7th day after the injection, the eye appeared to be untouched, the conjunctival injection had subsided. Visual acuity had improved from 0.03 before the injection to 0.1. […] Upon optical coherence tomography, the foveolar zone increased in thickness from 69 μm at baseline to 71 μm at seven days after the injection, and to 73 μm two weeks later (FIGS. 3a, b).
# adult rabbits' eyes = assay: Toxicity test of intravitreally administered EGF (rabbits); format: in vivo, rabbit; conditions: for Intraocular pressure (IOP): injected right eye (OD), 100 ng EGF intravitreal
# Description: The injections were performed in the upper right quadrant of the eyes in a distance of 3-4 mm from the limbus. At baseline of the study, and at specific dates after the injection the animals were examined using photography of the external eye and anterior and posterior segment of the eye, tonometry, optical coherence tomography (OCT) of the posterior fundus, and fundus photography. Four weeks after a third injection, the animals were sacrificed and the globes were histomorphometrically examined.
# After sacrificing the animals, the eyes were enucleated, immediately fixed in a solution of 1% glutaraldehyde and 4% formaldehyde, and kept in that solution for seven days at room temperature. The sagittal, vertical and horizontal globe diameter were subsequently measured. A central segment with a thickness of about 8 mm and running through the optic nerve head and the pupil was cut out of the fixed globes, dehydrated in alcohol, imbedded in paraffin, sectioned for light microscopy with a slide thickness of 4-6 μm, and stained with hematoxylin eosin.
# The cell number in the three retinal layers containing cell nuclei was counted. The slides for apoptotic cell death were additionally stained using the TUNEL (terminal deoxynucleotidyl transferase dUTP nick end labeling) technique.
# [7] = system: EGF-EGFR-MAPK signal transduction pathway; conditions: human RPE cells in culture; concentration-dependent manner; cited from earlier work
# [8] = injected eyes vs eyes injected with PBS or untouched eyes
# [9] = 0.75 μg EGF intravitreal, one line per patient (1-7)
# [10] = after the repeated intravitreal injections
substance,measurement,setting,value
Amphiregulin,animal weight,"guinea pig eyes; four groups, 10 ng in 5 μl intravitreal, two injections at ten days interval",did not differ in their weight at any time point analyzed
same,TUNEL positive cell numbers,guinea pig eyes; [8],No significant increase
same,microglial infiltration,guinea pig eyes; [8],No significant increase
same,retinal gliosis,guinea pig eyes; [8],No significant increase
same,intraocular inflammatory or toxic effect,"guinea pig eyes; repeatedly intravitreally applied, guinea pigs (summary)",did not result in an intraocular inflammatory or toxic effect
insulin-like growth factor-1 [IGF-1],RPE cell migration,bovine RPE cell [1],significantly enhanced
epidermal growth factor [EGF],Visual Acuity (Decimal) at last examination,"[2]; 0.75 μg EGF in 50 μl intravitreal, one line per patient (1-7), follow-up one to seven weeks",0.09 and 0.03 and 0.06 and 0.1 (2×) and 0.08 and 0.05
same,Intraocular Pressure,[2]; [9],17 mmHg and 16 mmHg
same,Quality of vision,[2]; [9],Improved
same,Improvement in ETDRS letters,"[2]; 0.75 μg EGF intravitreal, one line per patient (1-7), last examination vs before injection",3 ETDRS letters and 8 ETDRS letters and 9 ETDRS letters and 26 ETDRS letters and 6 ETDRS letters and 11 ETDRS letters and 0 ETDRS letters
same,side effects,[2]; besides conjunctival vessel dilatation or circumscribed subconjunctival hemorrhage at the site of the injection,no other side effects were noted
same,"intraocular pressure after injection, upper bound in all eyes",[2]; none of the eyes beyond this value,≤ 21 mmHg
same,patients with improvement in measured visual acuity,"[2]; out of seven patients, follow-up one week to seven weeks",six showed an improvement in their measured visual acuity
same,visual function and macular morphology,"[2]; patients with geographic atrophy, intravitreal application (summary of Examples 1 and 2)",improvement in visual function and macular morphology
same,intraocular tolerability,"[2]; patients, intravitreal application (summary statement)",well tolerated intraocularly without signs of intraocular inflammation or toxicity
same,cells in the anterior chamber fluid or vitreous cavity (slit lamp-based biomicroscopy),[2]; seven patients,In none of the eyes
same,central visual field (perimetry),[2]; seven patients,also improved
same,hemorrhages or other newly developed pathologies in the retina,[2]; seven patients,none of the eyes revealed hemorrhages or other newly developed pathologies in the retina
same,"signs of intraocular inflammation, lens opacification, optic media clarity, intraocular pressure change",[2]; seven patients,"no signs of intraocular inflammation, lens opacification, changes in the clarity of the optic media, or any significant change in intraocular pressure"
same,"thickness of the tissue in the foveolar region (fundus examination, OCT)",[2]; seven patients,tendency of an increase
same,RPE cell DNA synthesis,bovine RPE cell [3],stimulated
same,EGFR signaling via the PI3K/Akt pathway,EGFR,caused an increase
same,ARPE-19 cell proliferation,ARPE-19 cell line [4],increased with higher concentrations
same,survival of RPE D407 cells,RPE D407 cells,stimulated survival of RPE D407 cells
same,ARPE-19 cell migration,ARPE-19 cell line [5],increased with higher concentrations
same,subjective vision,[6]; 7th day after the injection,marked improvement in vision
same,Visual acuity,"[6]; 7th day after the injection, 0.03 before the injection",0.1
same,light differential sensitivity in the central zone (computer perimetry),"[6]; after injection, central four measurement points, 11.3 dB before",24.8 dB per measurement point
same,Intraocular Pressure,"[6]; human, in vivo",unchanged within normal limits
same,conjunctival injection,"[6]; human, in vivo",had subsided
same,finding on the surface of the eye,"[6]; human, in vivo",mixed moderate conjunctival injection
same,pathological reactions of the anterior segment of the eye,"[6]; human, in vivo",no pathological reactions
same,foveolar zone thickness upon optical coherence tomography,[6]; seven days after the injection,71 μm
same,central visual acuity,[6]; third day after injection,unchanged
same,optical coherence tomography images of the fundus,[6]; third day after injection,unchanged
same,peripheral vision,[6]; third day after injection,remained unchanged
same,subjective vision (metamorphopsias),[6]; third day after injection,the distortions and curvatures of objects (metamorphopsias) disappeared
same,foveolar zone thickness upon optical coherence tomography,[6]; two weeks later,73 μm
same,RPE cell migration,bovine RPE cell [1],significantly enhanced
same,change in intraocular pressure (IOP) as measured by tonometry,adult rabbits' eyes; [10],No significant change
same,change in retinal thickness as measured by OCT,adult rabbits' eyes; [10],No significant change
same,Intraocular pressure (IOP),adult rabbits' eyes; 5 Dec. 2018,6 mmHg
same,Intraocular pressure (IOP),adult rabbits' eyes; 29 Dec. 2018,8 mmHg
same,cell count of the retinal layers (histomorphometry),"adult rabbits' eyes; injected vs contralateral eyes, posterior pole, midpoint, equator, ora serrata region, all P-values>0.20",did not differ significantly
same,apoptotic cells in TUNEL staining,adult rabbits' eyes; rabbit eyes,"neither in the right eyes or in the left eyes, apoptotic cells were detected"
same,"intravital examinations of the external eye and the anterior segment (toxicity, cataract)","adult rabbits' eyes; rabbits, repeated intravitreal injections",did not reveal any sign of toxicity or development of cataract
same,intraocular inflammatory or toxic effect,"adult rabbits' eyes; repeatedly intravitreally applied, rabbits (summary)",did not result in an intraocular inflammatory or toxic effect
same,EGF-EGFR-MAPK signal transduction pathway induction,[7],induces the EGF-EGFR-MAPK (mitogen-activated protein kinase) signal transduction pathway
platelet-derived growth factor [PDGF],RPE cell DNA synthesis,bovine RPE cell [3],stimulated
same,RPE cell migration,bovine RPE cell [1],significantly enhanced
basic fibroblast growth factor [bFGF],RPE cell DNA synthesis,bovine RPE cell [3],stimulated
same,RPE cell migration,bovine RPE cell [1],significantly enhanced
acidic fibroblast growth factor [aFGF],RPE cell DNA synthesis,bovine RPE cell [3],stimulated
same,RPE cell migration,bovine RPE cell [1],significantly enhanced
